The values that follow are results of earlier work, collected in US5426034A, “Process for the production and use of a stable 6-phosphogluconolactonase” (Boehringer Mannheim GmbH, priority 1990, dated 1995).

This data set deals with 6-phosphogluconolactonase (phosphogluconolactonase) from Zymomonas mobilis. The settings on record: Zymomonas enzyme, literature value (Scopes 1985); substrate specificity.

As for `O=C1O[C@H](COP(=O)(O)O)[C@@H](O)[C@H](O)[C@H]1O` [6-phosphogluconolactone], the Km (usually the concentration of substrate that gives half-maximal velocity) is 20 to 30 µM.
